The record followed here is patent publication US11555036B2, “FGFR4 inhibitor, preparation method therefor and pharmaceutical use thereof” (Abbisko Therapeutics Co., Ltd., priority 2016, dated 2023).

One may read the IC50 as the midpoint of a concentration-inhibition curve. A word on the EC50: it is the concentration giving half of the maximal effect.

For one assay, the target named is FGFR4 (Homo sapiens, UniProt P22455). In words: FGFR4 Caliper Assay (in vitro biochemical kinase analysis of FGFR4). Conditions: read-out: Enzymatic activity FGFR4 IC50. Put shortly:
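Kinase reaction at 30° C for 40 min in 50 mM HEPES pH 7.5, 16 mM MgCl2, 1 mM DTT, 0.6% DMSO, stopped with EDTA. Phosphorylated and unphosphorylated fluorescent peptides separated by Caliper microfluidic mobility shift. IC50 by non-linear regression of percent inhibition.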

The subject of assay [1] is Huh7 hepatocellular carcinoma cells. The experiment in a line: FGFR4 cell proliferation experiment, Cell Titer Glo (CTG). Type of assay: cell-based. Conditions: Homo sapiens, Huh-7, 72 h, HuH-7 cells, 3 days; for IC50: concentration leading to absolute half growth inhibition; for EC50: concentration leading to half maximal growth inhibition. Put shortly: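 Cells treated with 5-fold serial dilutions starting at 10 μM for 3 days at 37° C, 5% CO2. Proliferation/survival quantified as cellular ATP by CellTiter-Glo luminescence.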
For orientation: Cellular ATP, detected with luciferase, serves as a proxy for viable cell number.

FGFR4, sequence (P22455 22-802): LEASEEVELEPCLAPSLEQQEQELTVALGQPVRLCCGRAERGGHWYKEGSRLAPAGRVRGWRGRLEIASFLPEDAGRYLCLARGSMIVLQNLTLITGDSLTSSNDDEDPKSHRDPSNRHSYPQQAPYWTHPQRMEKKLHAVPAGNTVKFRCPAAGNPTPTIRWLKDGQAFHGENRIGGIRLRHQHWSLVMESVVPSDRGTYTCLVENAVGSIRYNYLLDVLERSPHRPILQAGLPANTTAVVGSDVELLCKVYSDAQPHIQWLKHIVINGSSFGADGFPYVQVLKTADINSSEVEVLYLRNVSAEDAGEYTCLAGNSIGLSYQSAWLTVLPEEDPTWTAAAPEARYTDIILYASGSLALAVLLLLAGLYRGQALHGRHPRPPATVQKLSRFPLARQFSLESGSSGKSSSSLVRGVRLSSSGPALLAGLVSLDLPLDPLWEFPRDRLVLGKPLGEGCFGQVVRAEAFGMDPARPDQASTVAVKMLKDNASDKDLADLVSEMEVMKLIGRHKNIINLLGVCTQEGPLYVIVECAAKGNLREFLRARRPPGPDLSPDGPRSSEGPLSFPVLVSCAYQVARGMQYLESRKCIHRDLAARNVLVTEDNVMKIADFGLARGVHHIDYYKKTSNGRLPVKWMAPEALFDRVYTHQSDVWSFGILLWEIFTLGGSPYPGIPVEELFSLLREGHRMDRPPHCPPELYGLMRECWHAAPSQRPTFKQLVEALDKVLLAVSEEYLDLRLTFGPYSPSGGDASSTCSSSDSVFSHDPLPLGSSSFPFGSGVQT

As to `C=CC(=O)Nc1cnn(CCOC)c1-c1ncc2cc(-c3c(Cl)c(OC)cc(OC)c3Cl)ncc2n1` [Example 715, N-(5-(6-(2,6-dichloro-3,5-dimethoxyphenyl)pyrido[3,4-d]pyrimidin-2-yl)-1-(2-methoxyethyl)-1H-pyrazol-4-yl)acrylamide], on FGFR4, the IC50 was 0.0627 µM. In assay [1], the midpoint of inhibition, the IC50, lay at 1.92 µM and a half-maximal response (EC50) required 1.92 µM.
For the compound `C=CC(=O)Nc1cnn(CCOC)c1-c1cc2cnc(-c3c(Cl)c(OC)cc(OC)c3Cl)cc2cn1` [Example 723, N-(5-(7-(2,6-dichloro-3,5-dimethoxyphenyl)-2,6-naphthyridin-3-yl)-1-(2-methoxyethyl)-1H-pyrazol-4-yl)acrylamide], on FGFR4, the IC50 came to 0.0785 µM. In assay [1], the IC50 was 1.21 µM and the EC50 was found to be 0.338 µM.
As to `C=CC(=O)NCc1cc2c(cn1)cc(-c1c(Cl)c(OC)cc(OC)c1Cl)c(=O)n2C` [Example 730, N-((3-(2,6-dichloro-3,5-dimethoxyphenyl)-1-methyl-2-oxo-1,2-dihydro-1,6-naphthyridin-7-yl)methyl)acrylamide], the IC50 at FGFR4 was 0.115 µM. In assay [1], half-maximal inhibition (IC50) required 0.194 µM and the midpoint of the response, the EC50, lay at 0.164 µM.
The corresponding values for `C=CC(=O)N[C@H]1COC[C@H]1Nc1cc2c(NC)nc(-c3c(Cl)c(OC)cc(OC)c3Cl)nc2cn1` [Example 752, N-((3R,4S)-4-((2-(2,6-dichloro-3,5-dimethoxyphenyl)-4-(methylamino)pyrido [3,4-d]pyrimidin-6-yl)amino)tetrahydro-furan-3-yl)acrylamide] are 0.991 µM, 2.63 µM and 1.71 µM.
In the case of `C=CC(=O)N[C@H]1COC[C@H]1Nc1ncc2cc(-c3c(Cl)c(OC)cc(OC)c3Cl)nc(Cl)c2n1` [Example 753, N-((3R,4S)-4-((8-chloro-6-(2,6-di-chloro-3,5-dimethoxyphenyl)py-rido[3,4-d]pyrimidin-2-yl)amino)tetrahydro-furan-3-yl)acrylamide], at FGFR4, the IC50 is 0.019 µM. Moreover, in assay [1], the IC50 is 0.212 µM and it took 0.13 µM to reach a half-maximal effect (EC50).
For `[2H]C([2H])([2H])Oc1cc(OC([2H])([2H])[2H])c(Cl)c(-c2cc3cnc(N[C@@H]4COC[C@@H]4NC(=O)C=C)nc3c(OCC)n2)c1Cl` [Example 754, N-((3R,4S)-4-((6-(2,6-dichloro-3,5-bis(methoxy-d3)phenyl)-8-ethoxy-pyrido[3,4-d]pyrimidin-2-yl)amino)tetra-hydrofuran-3-yl)acrylamide], the IC50 at FGFR4 was determined as 0.0136 µM. Also, in assay [1], the IC50 was determined as 0.054 µM and the EC50 was 0.018 µM.
For `C=CC(=O)N[C@H]1COC[C@H]1Nc1ncc2cc(-c3c(Cl)c(OC)cc(OC)c3Cl)nc(C3=CCOCC3)c2n1` [Example 756, N-((3R,4S)-4-((6-(2,6-dichloro-3,5-dimethoxyphenyl)-8-(3,6-dihydro-2H-pyran-4-yl)pyrido[3,4-d]pyrimidin-2-yl)amino)tetrahydrofuran-3-yl)acryl-amide], in that order: 0.0202 µM, 0.031 µM and 0.019 µM.
For `C=CC(=O)N[C@H]1COC[C@H]1Nc1ncc2cc(-c3c(Cl)c(OC)cc(OC)c3Cl)nc(NCC(CO)(CO)CO)c2n1` [Example 758, N-((3R,4S)-4-((6-(2,6-dichloro-3,5-dimethoxypehnyl)-8-((3-hydroxy-2,2-bis(hydroxymethyl)propyl)amino)py-rido[3,4-d]pyrimidin-2-yl)amino)tetra-hydrofuran-3-yl)acrylamide], in that order: 0.0059 µM, 0.0092 µM and 0.0058 µM.
For `C=CC(=O)N[C@H]1COC[C@H]1Nc1ncc2cc(-c3c(Cl)c(OC)cc(OC)c3Cl)nc(N3CC(CO)(CO)C3)c2n1` [Example 759, N-((3R,4S)-4-((8-(3,3-bis(hydroxy-methyl)azetidin-1-yl)-6-(2,6-dichloro-3,5-dimethoxyphenyl)pyrido[3,4-d]py-rimidin-2-yl)amino)tetrahydrofuran-3-yl)acrylamide], in that order: 0.0057 µM, 0.0611 µM and 0.0422 µM.
Consider `C=CC(=O)N[C@H]1COC[C@H]1Nc1ncc2cc(-c3c(Cl)c(OC)cc(OC)c3Cl)nc(N3CCC(C)(O)C3)c2n1` (stereo partly drawn) [Example 760, N-((3R,4S)-4-((6-(2,6-dichloro-3,5-dimethoxyphenyl)-8-(3-hydroxy-3-methylpyrrolidin-1-yl)pyrido[3,4-d]py-rimidin-2-yl)amino)tetarhydrofuran-3-yl)acrylamide], for which the values for the IC50 (on FGFR4; in assay [1]) were 0.0029 µM and 0.0067 µM, respectively. The EC50 in assay [1] was found to be 0.0055 µM.
With `C=CC(=O)N[C@H]1COC[C@H]1Nc1ncc2cc(-c3cc(OC)cc(OC)c3Cl)nc(-c3cnn(C)c3)c2n1` [Example 761, N-((3R,4S)-4-((6-(2-chloro-3,5-dimeth-oxyphenyl)-8-(1-methyl-1H-pyrazol-4-yl)pyrido[3,4-d]pyrimidin-2-yl)ami-no)tetrahydrofuran-3-yl)acrylamide], the IC50 on FGFR4 was 0.0143 µM. In assay [1], this compound yielded an IC50 of 0.0518 µM and an EC50 of 0.0207 µM.
Turning to `C=CC(=O)N[C@H]1COC[C@H]1Nc1ncc2cc(-c3c(Cl)c(OC)cc(OC)c3Cl)nc(N3CC4CC(C3)O4)c2n1` [Example 762, N-((3R,4S)-4-((8-(6-oxa-3-aza-bicyclo[3.1.1]heptan-3-yl)-6-(2,6-di-chloro-3,5-dimethoxyphenyl)pyrido[3,4-d]pyrimidin-2-yl)amino)tetrahydro-furan-3-yl)acrylamide], the IC50 on FGFR4 is 0.0052 µM; in assay [1], 0.0042 µM. The compound further gave an EC50 in assay [1] of 0.0032 µM.
The corresponding values for `C=CC(=O)N[C@H]1COC[C@H]1Nc1ncc2cc(-c3c(Cl)c(OC)cc(OC)c3Cl)nc(N3CC4CC3CO4)c2n1` (stereo partly drawn) [Example 763, N-((3R,4S)-4-((8-(2-oxa-5-azabicyclo[2.2.1]heptan-5-yl)-6-(2,6-dichloro-3,5-dimethoxyphenyl)py-rido[3,4-d]pyrimidin-2-yl)a-mino)tetrahydrofuran-3-yl)acrylamide] are 0.0079 µM, 0.0111 µM and 0.0078 µM.
For `C=CC(=O)N[C@H]1COC[C@H]1Nc1ncc2cc(-c3c(F)c(OC)cc(OC)c3F)nc(NC)c2n1` [Example 764, N-((3R,4S)-4-((6-(2,6-difluoro-3,5-dimethoxyphenyl)-8-(methylamino)py-rido[3,4-d]pyrimidin-2-yl)amino)tetra-hydrofuran-3-yl)acrylamide], in that order: 0.007 µM, 0.0604 µM and 0.0494 µM.
On to `C=CC(=O)N[C@H]1COC[C@H]1Nc1ncc2cc(-c3c(Cl)c(OC)cc(OC)c3Cl)nc(N)c2n1` [Example 765, N-((3R,4S)-4-((8-amino-6-(2,6-di-chloro-3,5-dimethoxyphenyl)pyrido[3,4-d]pyrimidin-2-yl)amino)tetrahydro-furan-3-yl)acrylamide], for which the IC50 on FGFR4 stood at 0.158 µM. In assay [1], this compound displayed a half-maximal inhibitory concentration (IC50) of 0.656 µM and an EC50 of 0.421 µM.
For `[2H]C([2H])([2H])Nc1nc(-c2c(Cl)c(OC([2H])([2H])[2H])cc(OC([2H])([2H])[2H])c2Cl)cc2cnc(N[C@@H]3COC[C@@H]3NC(=O)C=C)nc12` [Example 766, N-((3R,4S)-4-((6-(2,6-dichloro-3,5-bis(methoxy-d3)phenyl)-8-((methyl-d3)amino)pyrido[3,4-d]pyrimidin-2-yl)a-mino)tetrahydrofuran-3-yl)acrylamide], on FGFR4, the IC50 came to 0.0083 µM. In assay [1], this compound came in with an IC50 of 0.0279 µM and an EC50 of 0.0198 µM.
Turning to `C=CC(=O)N[C@H]1COC[C@H]1Nc1ncc2cc(-c3c(F)c(OC)cc(OC)c3F)nc(NCC)c2n1` [Example 767, N-((3R,4S)-4-((6-(2,6-difluoro-3,5-dimethoxyphenyl)-8-(ethylamino)pyri-do[3,4-d]pyrimidin-2-yl)amino)tetra-hydrofuran-3-yl)acrylamide], the IC50 on FGFR4 amounted to 0.007 µM. For the same compound, in assay [1], the IC50 came to 0.0451 µM and it took 0.0239 µM to reach a half-maximal effect (EC50).
The corresponding values for `C=CC(=O)N[C@H]1COC[C@H]1Nc1ncc2cc(-c3c(F)c(OC)cc(OC)c3F)nc(N3CC(F)(F)C3)c2n1` [Example 768, N-((3R,4S)-4-((6-(2,6-difluoro-3,5-dimethoxyphenyl)-8-(3,3-difluoro-azetidin-1-yl)pyrido[3,4-d]pyrimi-din-2-yl)amino)tetrahydro-furan-3-yl)acrylamide] are 0.004 µM, 0.0125 µM and 0.0099 µM.
For `C=CC(=O)N[C@H]1COC[C@H]1Nc1ncc2cc(-c3c(F)c(OC)cc(OC)c3F)nc(N3CC4CC(C3)O4)c2n1` [Example 769, N-((3R,4S)-4-((8-(6-oxa-3-azabicyclo[3.1.1]heptan-3-yl)-6-(2,6-difluoro-3,5-dimethoxy-phenyl)pyrido[3,4-d]pyrimidin-2-yl)amino)tetrahydrofuran-3-yl)acrylamide], in that order: 0.0037 µM, 0.01 µM and 0.0084 µM.
For `C=CC(=O)N[C@H]1COC[C@H]1Nc1ncc2cc(-c3cccc(OC)c3F)nc(NC)c2n1` [Example 770, N-((3R,4S)-4-((6-(2-fluoro-3-meth-oxyphenyl)-8-(methylamino)pyrido[3,4-d]pyrimidin-2-yl)amino)tetrahydro-furan-3-yl)acrylamide], in that order: 2.41 µM, over 10 µM and over 10 µM.
As to `[2H]C([2H])([2H])Nc1nc(-c2c(Cl)c(OC)cc(OC)c2Cl)cc2cnc(N[C@@H]3COC[C@@H]3NC(=O)C=C)nc12` [Example 771, N-((3R,4S)-4-((6-(2,6-dichloro-3,5-dimethoxyphenyl)-8-((methyl-d3)ami-no)pyrido[3,4-d]pyrimidin-2-yl)ami-no)tetrahydrofuran-3-yl)acrylamide], the IC50 on FGFR4 is 0.0079 µM. Further, in assay [1], the IC50 amounted to 0.0323 µM and it took 0.0255 µM to reach a half-maximal effect (EC50).
